Test results taken from US12624004B2 (Fudan University, priority 2019, dated 2026).

Test system: Female mice
Experiment: In vivo hot plate method analgesia test
Procedure, shortened: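 Female mice (~20 g) on a 55° C hot plate, hindpaw response latency as pain threshold (pre-screen 5–30 s, 60 s cut-off). Latencies at 15, 30, 60 and 120 min after intraperitoneal dosing. %MPE = (post−pre latency)/(60−pre)×100, ED50 derived from %MPE.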

## COc1cccc(C2(O)CCCCC2CN(C)C)c1 (stereo not shown) [Tramadol, reference compound]
Table 1-2, hot plate, 5 mg/kg dose
  analgesic effect: no analgesic effect
Table 1-2, hot plate, 50 mg/kg dose
  Maximum percentage effective analgesic (% MPE): 64.5%
Table 2-2, hot plate, at 5 mg/kg or 50 mg/kg dose
  analgesic effect: no analgesic effect
Table 2-2, hot plate, tramadol, dose of this value not clearly printed
  % MPE: 64.5%
Table 3-2, hot plate, @10 mg/kg
  analgesic effect: no effective
Table 3-2, hot plate, @50 mg/kg
  % MPE: 64.5%
Table 4-2, hot plate, 10 mg/kg dose
  analgesic effect: no analgesic effect
Table 4-2, hot plate, 50 mg/kg dose
  % MPE: 64.5%
Table 5-2, hot plate, 10 mg/kg dose
  analgesic effect: no analgesic effect
Table 5-2, hot plate, 50 mg/kg dose
  Maximum percentage effective analgesia (% MPE): 64.5%
